Values quoted from earlier work as cited in patent publication US20240315940A1, “Topical Nourishing/Antimicrobial Compositions” (Laboratory Skin Care, Inc., priority 2021, published 2024).

System: bacteria, fungi, Pseudomonas aeruginosa, Pseudomonas capacia, Staphylococcus aureus, Escherichia coli, Candida albicans, Aspergillus niger, Salmonella …
Conditions: whole genera of microorganisms

Oc1cc(Cl)ccc1Oc1ccc(Cl)cc1Cl [triclosan]
effectiveness against microorganisms: effective
